Values after ≈ are worked out from the molar mass of the structure shown.
How the values were obtained:
[1] = published CLSI MIC used as test concentration; species not given; cited from earlier work
K. pneumoniae = conditions: published CLSI MIC used as test concentration; cited from earlier work
E. coli [2] = conditions: published CLSI MIC used as test concentration; cited from earlier work
S. pneumoniae = conditions: published CLSI MIC used as test concentration; cited from earlier work
S. aureus = conditions: published CLSI MIC used as test concentration; cited from earlier work
C. albicans = conditions: published CLSI MIC used as test concentration; antifungals tested for C. albicans; cited from earlier work
E. faecalis = conditions: published CLSI MIC used as test concentration; cited from earlier work
E. coli [3] = test: MAST: succinate production after 4 h incubation with antimicrobial; format: cell-based, Escherichia coli; conditions: AMP and SXT resistant E. coli strain, antibiotics at MIC
Description: All chemicals were obtained from Sigma-Aldrich (St. Louis, Mo. USA), VWR (Radnor, Pa. USA), or Fisher Scientific (Waltham, Mass. USA) unless otherwise specified. Clinical isolates used in this study were obtained from bloodstream infected patients. All strains were first identified and tested for antibiotic susceptibility using a clinical laboratory testing pipeline (plating on selective medium for single colony isolation, Gram staining, MALDI-TOF-MS species identification, and sub-culturing for purity and inoculation onto VITEK 2 (bioMerieux) antimicrobial susceptibility panels), and subsequently frozen as cryostocks. With the exception of S. pneumoniae, all strains were routinely grown in Mueller Hinton medium (BD Difco, Mississauga, ON, Canada). […] Supernatant was then diluted 1:10 with 50% LC-MS grade methanol and analyzed using UHPLC-MS. […]
To assess MAST as a potential clinical tool, three patient isolates for each target pathogen (2 each for S. aureus and P. aeruginosa) were analyzed. […] Both bactericidal (penicillins, cephalosporins, carbapenems, glycopeptides, aminoglycosides and fluoroquinolones) and bacteriostatic (macrolides, tetracyclines, and trimethoprim-sulfamethoxazole) antibiotic classes were evaluated.

KP = test: MAST: hypoxanthine production after 4 h incubation with antimicrobial; format: cell-based, Klebsiella pneumoniae
Description: All chemicals were obtained from Sigma-Aldrich (St. Louis, Mo. USA), VWR (Radnor, Pa. USA), or Fisher Scientific (Waltham, Mass. USA) unless otherwise specified. Clinical isolates used in this study were obtained from bloodstream infected patients. All strains were first identified and tested for antibiotic susceptibility using a clinical laboratory testing pipeline (plating on selective medium for single colony isolation, Gram staining, MALDI-TOF-MS species identification, and sub-culturing for purity and inoculation onto VITEK 2 (bioMerieux) antimicrobial susceptibility panels), and subsequently frozen as cryostocks. With the exception of S. pneumoniae, all strains were routinely grown in Mueller Hinton medium (BD Difco, Mississauga, ON, Canada). S. pneumoniae isolates were first revived on trypticase soy agar plates containing sheep blood (BD BBL, Mississauga, ON, Canada) and then sub-cultured into Mueller Hinton medium supplemented with catalase (1000 U/mL). For biomarker discovery and validation of biomarkers using MPAs, exponential phase cultures were used to seed 96 well culture plates (Corning, N.Y., N.Y. USA) containing Mueller Hinton medium with 10% donated human blood to a 0.5 McFarland (OD600˜0.07 or ˜1.5×10^8 CFU/mL). […] Supernatant was then diluted 1:10 with 50% LC-MS grade methanol and analyzed using UHPLC-MS. […]

P. aeruginosa = conditions: published CLSI MIC used as test concentration; cited from earlier work

Question: Which minimum inhibitory concentrations [1] does the source give for `Cc1onc(-c2ccccc2)c1C(=O)N[C@@H]1C(=O)N2[C@@H]1SC(C)(C)[C@@H]2C(=O)O` [OXA, oxacillin] here?
Answer: 2 µg/mL (≈ 4.98 µM)

Question: With `CO/N=C(\C(=O)N[C@@H]1C(=O)N2C(C(=O)O)=C(CSc3nc(=O)c(=O)[nH]n3C)CS[C@H]12)c1csc(N)n1` [CRO, Ceftriaxone] as the compound, how does the minimum inhibitory concentrations (K. pneumoniae) read?
Answer: 1 µg/mL (≈ 1.8 µM)

Question: What about the minimum inhibitory concentrations (E. coli [2]) of the same compound?
Answer: 1 µg/mL (≈ 1.8 µM)

Question: And the minimum inhibitory concentrations (S. pneumoniae)?
Answer: 0.5 µg/mL (≈ 0.902 µM)

Question: Which minimum inhibitory concentrations (S. aureus) does the source give for `CC[C@H]1OC(=O)[C@H](C)[C@@H](O[C@H]2C[C@@](C)(OC)[C@@H](O)[C@H](C)O2)[C@H](C)[C@@H](O[C@@H]2O[C@H](C)C[C@H](N(C)C)[C@H]2O)[C@](C)(O)C[C@@H](C)C(=O)[C@H](C)[C@@H](O)[C@]1(C)O` [ERY, erythromycin] here?
Answer: 0.5 µg/mL (≈ 0.681 µM)

Question: What about the minimum inhibitory concentrations (S. pneumoniae) of the same compound?
Answer: 0.25 µg/mL (≈ 0.341 µM)

Question: With `OC(Cn1cncn1)(Cn1cncn1)c1ccc(F)cc1F` [FLC, fluconozole] as the compound, how does the minimum inhibitory concentrations (C. albicans) read?
Answer: 2 µg/mL (≈ 6.53 µM)

Question: Which results are given for `CN[C@H](CC(C)C)C(=O)N[C@H]1C(=O)N[C@@H](CC(N)=O)C(=O)N[C@H]2C(=O)N[C@H]3C(=O)N[C@H](C(=O)N[C@H](C(=O)O)c4cc(O)cc(O)c4-c4cc3ccc4O)[C@H](O)c3ccc(c(Cl)c3)Oc3cc2cc(c3O[C@@H]2O[C@H](CO)[C@@H](O)[C@H](O)[C@H]2O[C@H]2C[C@](C)(N)[C@H](O)[C@H](C)O2)Oc2ccc(cc2Cl)[C@H]1O` [VAN, vancomycin]?
Answer: minimum inhibitory concentrations (S. aureus): 2 µg/mL (≈ 1.38 µM); minimum inhibitory concentrations (S. pneumoniae): 1 µg/mL (≈ 0.69 µM); minimum inhibitory concentrations (E. faecalis): 4 µg/mL (≈ 2.76 µM)

Question: Which minimum inhibitory concentrations (C. albicans) does the source give for `C[C@@H]1[C@H](O)[C@@H](C)/C=C/C=C/C=C/C=C/C=C/C=C/C=C/[C@H](O[C@@H]2O[C@H](C)[C@@H](O)[C@H](N)[C@@H]2O)C[C@@H]2O[C@](O)(C[C@@H](O)C[C@@H](O)[C@H](O)CC[C@@H](O)C[C@@H](O)CC(=O)O[C@H]1C)C[C@H](O)[C@H]2C(=O)O` [AMB, amphotericin B] here?
Answer: 2 µg/mL (≈ 2.16 µM)

Question: Which results are given for `CC1(C)S[C@@H]2[C@H](NC(=O)[C@H](N)c3ccccc3)C(=O)N2[C@H]1C(=O)O` [AMP, ampicillin]?
Answer: minimum inhibitory concentrations [1]: 8 µg/mL (≈ 22.9 µM); succinate production in presence of antibiotic versus absence of antibiotics (E. coli [3]): comparable

Question: With penicillin as the compound, how does the minimum inhibitory concentrations [1] read?
Answer: 0.06 µg/mL

Question: Which minimum inhibitory concentrations [1] does the source give for `CC(C)(O/N=C(\C(=O)N[C@@H]1C(=O)N2C(C(=O)[O-])=C(C[n+]3ccccc3)CS[C@H]12)c1csc(N)n1)C(=O)O` [CAZ, ceftazidime] here?
Answer: 8 µg/mL (≈ 14.6 µM)

Question: For `Nc1nc(=O)[nH]cc1F` [5FC, 5-flucytosine], which minimum inhibitory concentrations (C. albicans) is on record?
Answer: 0.5 µg/mL (≈ 3.87 µM)

Question: For `Cc1nnc(SCC2=C(C(=O)O)N3C(=O)[C@@H](NC(=O)Cn4cnnn4)[C@H]3SC2)s1` [CFX, cefazolin], which minimum inhibitory concentrations [1] is on record?
Answer: 4 µg/mL (≈ 8.8 µM)

Question: Which minimum inhibitory concentrations (K. pneumoniae) does the source give for `C[C@@H](O)[C@H]1C(=O)N2C(C(=O)O)=C(S[C@@H]3CN[C@H](C(=O)N(C)C)C3)[C@H](C)[C@H]12` [MEM, meropenem] here?
Answer: 1 µg/mL (≈ 2.61 µM)

Question: What about the hypoxanthine production (KP; drug sensitive strains, range of meropenem concentrations) of the same compound?
Answer: incremental reduction in hypoxanthine production proportional to meropenem concentrations

Question: What about the hypoxanthine production (KP; resistant strains, clinically-relevant antibiotic concentrations) of the same compound?
Answer: remain unaffected

Question: And the minimum inhibitory concentrations (E. coli [2])?
Answer: 1 µg/mL (≈ 2.61 µM)

Question: What about the minimum inhibitory concentrations (P. aeruginosa) of the same compound?
Answer: 2 µg/mL (≈ 5.22 µM)

Question: And the minimum inhibitory concentrations (S. pneumoniae)?
Answer: 0.25 µg/mL (≈ 0.652 µM)

Question: For gentamicin, which minimum inhibitory concentrations [1] is on record?
Answer: 4 µg/mL

Question: What about the minimum inhibitory concentrations (E. faecalis) of the same compound?
Answer: 500 µg/mL
